Results published in patent US11789012B2, “Cell death biomarker” (UCL Business PLC, priority 2016, dated 2023).

How the values were obtained:
MPM cell lines = test: Combination drug screen with rTRAIL as anchor drug; format: cell-based, Human; details: otherwise resistant cells; delta AUC synergy metric
Procedure: FIG. 7A is a volcano plot showing drug-genome interactions when rTRAIL was used as an anchor drug in combination with the library of 94 single agent compounds. Synergy was described using delta AUC metric. FIGS. 7B & 7C are graphs showing the effect of rTRAIL on cell viability of MPM cells in the presence of LCL161. TRAIL resistant MPM cells were treated with either 0-1000 ng/ml of TRAIL alone or a combination of 5 μM LCL161 and 0-1000 ng/ml of TRAIL for 24 hours and cell death was quantified by Annexin V/DAPI assay. FIG. 7D is a graph showing the effect of rTRAIL on cell viability of cells in the presence of the IAP inhibitor, LCL161. BAP1-transduced or BAP1 C91A-transduced H226 cells were treated either with 0-1000 ng/ml of TRAIL alone or combination of 5 μM LCL161 and 0-1000 ng/ml of TRAIL for 24 hours and cell death was quantified by Annexin V/DAPI assay.
Manual “single dose” combination screening was undertaken using 96 well formats. Cells were plated on day 1 in previously optimized seeding densities in 180 μl if media. On day 2 20 μl of a 10× concentration of […] was added. Cells were then allowed to grow for 72 hrs or 6 days and fixed at the end of the assay. Drug wells were compared to DMSO treated control wells.
Single agent high throughput 5 point viability screening was undertaken in 384 well formats using robotic liquid handling with fixing with 4% paraformaldehyde and staining for viability with Syto60 nucleic acid dye (Invitrogen) (see below).
A binary event matrix was compiled for the cell lines in the mesothelioma screen by aggregating copy number and exome data and this was used as input classifiers for genomic correlation. Data from this therapeutic screen was then analysed using a Multivariate Analysis of Variance (MANOVA) to annotate the sensitizing effect of genotype on dose response.

NCI-H226 = test: Annexin V/DAPI cell death assay, H226 parental and BAP1-transduced lines; format: cell-based, Human; details: 100 ng/ml, 24 hours; untransduced, BAP1-expressing and catalytically dead BAP1-expressing H226
Procedure: FIG. 5A is an immunoblot for BAP1 protein in BAP1 null mesothelioma lines following transfection with empty vector and BAP1 expression vector. […] FIG. 5C is a graph showing the effect of rTRAIL on cell viability of an untransduced H226 cell line, a BAP1 (transduced) cell line, and a H226 cell line with the NLS deleted.
Untransduced BAP1-negative H226 cells, BAP1-expressing and catalytically dead BAP1-expressing H226 cells were treated with 100 ng/ml of FASL, TRAIL and TNF-alpha for 24 hours and cell death was quantified by Annexin V/DAPI assay. *p<0.05 indicating significant difference between untransduced H226 cells H226 BAP1 expressing cells. NS no significant difference between untransduced H226 cells and BAP1 C91A transduced cells. #p<0.05 indicating significant difference between untransduced H226 cells and BAP1 C91A transduced cells.
Adherent mesothelioma cell lines were plated in a 96 well plate at approximately 10000 cells per well. Cells were plated and given 1 day to adhere at which time drug was added. After 48 hrs media, including floating cells, was collected from each well. The remaining adherent cells were washed with PBS and mobilised with 0.05% trypsin in EDTA. All cells were collected into tubes containing the previously removed media and pelleted by centrifugation (300 g, 5 minutes). Cells were then re-suspended in 1× Annexin V binding buffer with 10 μl/1 ml concentration of Annexin V-647 antibody (Invitrogen) and incubated for 15 minutes at room temperature. DAPI ([…]) was then added to each sample before flow cytometry analysis as below. Annexin V−/DAPI− cells were judged to be viable, AnnexinV+/DAPI− cells were considered to be undergoing apoptosis (early apoptotic phase), and Annexin V+/DAPI+ cells were considered late apoptotic or necrotic, and recorded as dead.

For CN[C@@H](C)C(=O)N[C@H](C(=O)N1CCC[C@H]1c1nc(C(=O)c2ccc(F)cc2)cs1)C1CCCCC1 [LCL161], the “effect on DRL-induced apoptosis in combination with rTRAIL” value (from here on “effect on DRL-induced apoptosis”) (MPM cell lines) was “increase the efficacy of DRL-induced apoptosis”.

In the case of COc1ccc(C(=O)CC2(O)C(=O)Nc3c(Cl)ccc(Cl)c32)cc1 (centres unmarked) [YK-4279], the “effect on DRL-induced apoptosis” value (MPM cell lines) is reported as “increase the efficacy of DRL-induced apoptosis”.

CNC(=O)c1cc(Oc2ccc(NC(=O)Nc3ccc(Cl)c(C(F)(F)F)c3)cc2)ccn1 [sorafenib] was tested, and the “effect on DRL-induced apoptosis” value (MPM cell lines) was “increase the efficacy of DRL-induced apoptosis”.

TNFα was tested, and the “sensitivity of H226 cells to cell death-inducing ligand, dependence on BAP1 catalytic domain” value (NCI-H226) was “regulates the sensitivity”.

B1: FASL: cell death-inducing ligand, death receptor ligand (protein, UniProt P48023 130-281, looked up)
Tumor necrosis factor ligand …: QIGHPSPPPEKKELRKVAHLTGKSNSRSMPLEWEDTYGIVLLSGVKYKKGGLVINETGLYFVYSKVYFRGQSCNNLPLSHKVYMRNSKYPQDLVMMEGKMMSYCTTGQMWARSSYLGAVFNLTSADHLYVNVSELSLVNFEESQTFFGLYKL
With B1 the “sensitivity of H226 cells to cell death-inducing ligand, dependence on BAP1 catalytic domain” value (NCI-H226) was “regulates the sensitivity”.
